# Read-outs that look alike come from different tables or passages of the source.
# Tests used:
# Type in all cases: cell-based
# RPEMYC^H2B-GFP cells = experiment: Phenotypic screening assay (mitotic arrest, polyploidy); conditions: 1 nM to 30 μM; for IC50: read-out: Proliferative arrest (>50%)
# Outline: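 RPE cells expressing MYC and H2B-EGFP treated with compound at 1 nM–30 μM; mitotic index scored at 24 h and polyploidy (DNA content) at 48 h by automated imaging, with reads at 24, 48 or 72 h. Hits show transient mitotic arrest followed by polyploid accumulation.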
# A549 [1] = experiment: MECP in cancer cell line; conditions: Homo sapiens
# Protocol: (§1) Six lung cancer cell lines (NCI-H23, NCI-H460, NCI-H596, NCI-H2170, Calu-6 and A549), two colon cancer cell lines (HCT116 and SW460), one breast cancer cell line MDA-MB-231, one gastric cancer cell line NCI-N87, one prostate cancer cell line DU145, one cervical cancer cell line Hela, and one glioblastoma cell line T98G were obtained from ATCC. The T2 HCC cell line was derived from a mouse liver cancer model initiated by a transgene of MYC. All cell lines were cultured in DMEM (Gibco, Cleveland, TN, USA) supplemented with 5% fetal bovine serum (Gibco), penicillin (100 U/mL)—streptomycin (100 μg/mL) (Gibco, Cat. No. 15140-122), 2 mM L-glutamine (Gibco, 200 mM solution, Cat. No. 25030081), and 1 mM sodium pyruvate (Gibco, 100 mM solution, Cat. No. 11360070) at 37° C. in a humidified incubator that was maintained at 5% CO2.
# (§2) We have previously developed a mechanism-informed phenotypic screening assay to identify novel antimitotic agents. Equipped with a prior understanding of the versatile functions of the chromosomal passenger protein (CPP) complex in orchestrating karyokinesis and cytokinesis, the screening assay is to score for phenotypes typically seen when the CPP complex is disabled. Specifically, the parameters for a positive hit are a temporary elevation of mitotic index (MI) at 24 hours of drug treatment and an accumulation of polyploid cells at 48 hours of drug treatment, indicative of mitotic arrest and cytokinetic failure respectively. These parameters exclude compounds that elicit only a prolonged arrest of cells in mitosis, a phenotype typically provoked by spindle toxins. The screening procedure is briefly summarized here. RPEMYC^H2B-GFP cells engineered to express a Histone 2B-EGFP fusion protein were passaged as batches of 96-well plates, 18-24 hours before exposure to the chemical compounds of the present disclosure at concentrations from 1 nM to 30 μM. At 24, 48 or 72 hours after initiation of treatment, cells were analyzed for either an arrest in mitosis or a change in DNA content by GE IN-Cell Analyzer 2000. As set forth in Table 2 below, a value of greater than or equal to 1 nM and less than or equal to 1.0 μM is marked “A”; a value greater than 1.00 μM and less than or equal to 10.0 μM is marked “B”; a value greater than 10.0 μM and less than or equal to 30.0 μM is marked “C”; and a value greater than 30.0 μM is marked “D.”
# HCT116 [2] = experiment: MECP in cancer cell line; conditions: Homo sapiens, HCT-116
# Protocol: as §1, §2
# Hela [3] = experiment: MECP in cancer cell line; conditions: Homo sapiens
# Protocol: as §1, §2
# MDA-MB-231 [4] = experiment: MECP in cancer cell line; conditions: Homo sapiens
# Protocol: as §1, §2
# SW480 [5] = experiment: MECP in cancer cell line; conditions: Homo sapiens
# Protocol: as §1, §2
# T2 HCC [6] = experiment: MECP in cancer cell line; conditions: Mus musculus
# Protocol: as §1, §2
# NCI-H23 [7] = experiment: MECP in cancer cell line; conditions: Homo sapiens
# Protocol: as §1, with “CO2. […]” for “CO2.”
# NCI-N87 [8] = experiment: MECP in cancer cell line; conditions: Homo sapiens
# Protocol: as §1, with “CO2. […]” for “CO2.”
# A549 [9] = experiment: MTT assay of cellular proliferation; conditions: Homo sapiens, 50% inhibition of cellular proliferation
# Protocol: as §1
# (§3) The MTT assay measures cellular metabolic activity as a proxy for cell viability and involves the conversion of the water-soluble yellow dye MTT [3-(4,5-dimethylthiazol-2-yl)-2,5-diphenyltetrazolium bromide] into an insoluble purple formazan by the action of mitochondrial reductase. Formazan is then solubilized and its concentration is determined by measuring the optical density (OD) value at a wavelength of 570 nm. The value is in proportional to the number of live cells with excellent linearity up to ˜10^6 cells per well. The MTT assay was used to determine the EC50 value, the concentration of a compound that leads to 50% inhibition of cellular proliferation. Briefly, cells were split when growing to the mid-Log phase. Cells in 100 μL of culture medium were seeded into each well of 96-well microplates and cultivated for 15-24 hours to reach a confluence of 20-30% and were then exposed to drugs at concentrations ranging from 1 nM to 30 μM. At the endpoint, 20 μL of a MTT stock solution in DMSO (5 mg/mL) was added to each well that contains 100 μL of DMEM. The microplates were left in the cell culture incubator for 3-4 h before subjected to solubilization and determination of formazan at A570 in a microplate reader (BioTek ELX808iu). […] Therefore, these compounds might hold a broad utility in the treatment of a large variety of human malignancies.
# HCT116 [10] = experiment: MTT assay of cellular proliferation; conditions: Homo sapiens, HCT-116, 50% inhibition of cellular proliferation
# Protocol: as §1, §3
# Hela [11] = experiment: MTT assay of cellular proliferation; conditions: Homo sapiens, 50% inhibition of cellular proliferation
# Protocol: as §1, §3
# MDA-MB-231 [12] = experiment: MTT assay of cellular proliferation; conditions: Homo sapiens; MDA-MB-231, MTT, 50% inhibition of cellular proliferation
# Protocol: as §1, §3
# NCI-H23 [13] = experiment: MTT assay of cellular proliferation; conditions: Homo sapiens, 50% inhibition of cellular proliferation
# Protocol: as §1, §3
# NCI-N87 [14] = experiment: MTT assay of cellular proliferation; conditions: Homo sapiens, 50% inhibition of cellular proliferation
# Protocol: as §1, §3
# SW480 [15] = experiment: MTT assay of cellular proliferation; conditions: Homo sapiens, 50% inhibition of cellular proliferation
# Protocol: as §1, §3
# T2 HCC [16] = experiment: MTT assay of cellular proliferation; conditions: Mus musculus, 50% inhibition of cellular proliferation
# Protocol: as §1, §3
# [17] = read-out: Min. Effective conc. for Polyploidy (≥5%)
SMILES,EC50 (A549 [9]) [µM],EC50 (HCT116 [10]) [µM],EC50 (Hela [11]) [µM],EC50 (MDA-MB-231 [12]) [µM],EC50 (NCI-H23 [13]) [µM],EC50 (SW480 [15]) [µM],EC50 (T2 HCC [16]) [µM],minimal effective concentration (RPEMYC^H2B-GFP cells; [17]) [µM],minimal effective concentration (RPEMYC^H2B-GFP cells; read-out: Mitotic Arrest (≥5%)) [µM],IC50 (RPEMYC^H2B-GFP cells) [µM],minimal effective concentration (A549 [1]) [µM],minimal effective concentration (HCT116 [2]) [µM],minimal effective concentration (Hela [3]) [µM],minimal effective concentration (MDA-MB-231 [4]) [µM],minimal effective concentration (SW480 [5]) [µM],minimal effective concentration (T2 HCC [6]) [µM],minimal effective concentration (NCI-H23 [7]) [µM],minimal effective concentration (NCI-N87 [8]) [µM],EC50 (NCI-N87 [14]) [µM],Min. Effective conc. for Polyploidy (≥5%) (RPEMYC^H2B-GFP cells),also measured
"COc1cc(Oc2ccnc3cc(OC)c(C(N)=O)cc23)cc(-n2cccn2)c1 [Compound 30, 7-methoxy-4-(3-methoxy-5-(1H-pyrazol-1-yl)phenoxy)quinoline-6-carboxamide]",0.001 to 1,0.001 to 1,0.001 to 1,0.001 to 1,0.001 to 1,0.001 to 1,0.001 to 1,0.001 to 1,0.001 to 1,0.001 to 1,0.001 to 1,0.001 to 1,0.001 to 1,0.001 to 1,0.001 to 1,0.001 to 1,0.001 to 1,0.001 to 1,0.001 to 1,D (a value greater than 30.0 μM),Mitotic Arrest (≥5%) (RPEMYC^H2B-GFP cells): D (a value greater than 30.0 μM); Proliferative arrest (>50%) (RPEMYC^H2B-GFP cells): D (a value greater than 30.0 μM); Along with Cell Death (RPEMYC^H2B-GFP cells; listed as 25): D (a value greater than 30.0 μM)
"COC(=O)c1ccc2nccc(Oc3cc(NC(C)=O)cc(OC)c3)c2c1 [Compound 42, methyl 4-(3-acetamido-5-methoxyphenoxy)quinoline-6-carboxylate]",0.001 to 1,0.001 to 1,0.001 to 1,0.001 to 1,0.001 to 1,0.001 to 1,0.001 to 1,0.001 to 1,0.001 to 1,0.001 to 1,0.001 to 1,0.001 to 1,0.001 to 1,0.001 to 1,0.001 to 1,0.001 to 1,0.001 to 1,0.001 to 1,0.001 to 1,,
"COc1cc(NC(C)=O)cc(Oc2ccnc3cc(OC)c(OC)cc23)c1 [Compound 27, N-(3-((6,7-dimethoxyquinolin-4-yl)oxy)-5-methoxyphenyl)acetamide]",0.001 to 1,0.001 to 1,0.001 to 1,0.001 to 1,0.001 to 1,0.001 to 1,0.001 to 1,0.001 to 1,0.001 to 1,0.001 to 1,0.001 to 1,0.001 to 1,0.001 to 1,0.001 to 1,0.001 to 1,0.001 to 1,0.001 to 1,0.001 to 1,0.001 to 1,B (a value greater than 1.00 μM and less than or equal to 10.0 μM),Mitotic Arrest (≥5%) (RPEMYC^H2B-GFP cells): B (a value greater than 1.00 μM and less than or equal to 10.0 μM); Proliferative arrest (>50%) (RPEMYC^H2B-GFP cells): B (a value greater than 1.00 μM and less than or equal to 10.0 μM); Along with Cell Death (RPEMYC^H2B-GFP cells; listed as 23): B (a value greater than 1.00 μM and less than or equal to 10.0 μM)

# Now from value to compound, other results behind:
EC50 (A549 [9]) [µM],EC50 (HCT116 [10]) [µM],EC50 (Hela [11]) [µM],EC50 (MDA-MB-231 [12]) [µM],EC50 (NCI-H23 [13]) [µM],EC50 (SW480 [15]) [µM],EC50 (T2 HCC [16]) [µM],SMILES,minimal effective concentration (RPEMYC^H2B-GFP cells; [17]) [µM],minimal effective concentration (RPEMYC^H2B-GFP cells; read-out: Mitotic Arrest (≥5%)) [µM],IC50 (RPEMYC^H2B-GFP cells) [µM],minimal effective concentration (A549 [1]) [µM],minimal effective concentration (HCT116 [2]) [µM],minimal effective concentration (Hela [3]) [µM],minimal effective concentration (MDA-MB-231 [4]) [µM],minimal effective concentration (SW480 [5]) [µM],minimal effective concentration (T2 HCC [6]) [µM],minimal effective concentration (NCI-H23 [7]) [µM],minimal effective concentration (NCI-N87 [8]) [µM],EC50 (NCI-N87 [14]) [µM],Min. Effective conc. for Polyploidy (≥5%) (RPEMYC^H2B-GFP cells),also measured
0.001 to 1,0.001 to 1,0.001 to 1,0.001 to 1,0.001 to 1,0.001 to 1,0.001 to 1,"COc1cc(NC(C)=O)cc(Oc2ccnc3ccc(OC)cc23)c1 [Compound 18, N-(3-methoxy-5-((6-methoxyquinolin-4-yl)oxy)phenyl)acetamide]",0.001 to 1,0.001 to 1,0.001 to 1,0.001 to 1,0.001 to 1,0.001 to 1,0.001 to 1,0.001 to 1,0.001 to 1,0.001 to 1,0.001 to 1,0.001 to 1,,
0.001 to 1,0.001 to 1,0.001 to 1,0.001 to 1,0.001 to 1,0.001 to 1,0.001 to 1,"COc1cc(Oc2ncnc3cc[nH]c23)cc(-n2cccn2)c1 [Compound 35, 4-(3-methoxy-5-(1H-pyrazol-1-yl)phenoxy)-5H-pyrrolo[3,2-d]pyrimidine]",0.001 to 1,0.001 to 1,0.001 to 1,0.001 to 1,0.001 to 1,0.001 to 1,0.001 to 1,0.001 to 1,0.001 to 1,0.001 to 1,0.001 to 1,0.001 to 1,,
0.001 to 1,0.001 to 1,0.001 to 1,0.001 to 1,0.001 to 1,0.001 to 1,0.001 to 1,"COc1cc(Oc2ccnc3ccccc23)cc(-n2cccn2)c1 [Compound 12, 4-(3-methoxy-5-(1H-pyrazol-1-yl)phenoxy)quinoline]",0.001 to 1,0.001 to 1,0.001 to 1,0.001 to 1,0.001 to 1,0.001 to 1,0.001 to 1,0.001 to 1,0.001 to 1,0.001 to 1,0.001 to 1,0.001 to 1,,

# Source: US20240239806A1, “COMPOUNDS, COMPOSITIONS AND METHODS OF TREATING DISORDERS” (Chengdu Anticancer Bioscience, Ltd., priority 2021, published 2024)
